Measured values reported in patent publication US20230416232A1, “PYRIMIDINE COMPOUNDS, COMPOSITIONS, AND MEDICINAL APPLICATIONS THEREOF” (Blueprint Medicines Corporation, priority 2020, published 2023).

What was measured:
Type in all cases: cell-based
[1] = target: EGFR(D770_N771insSVD) expressing Ba/F3 stable cell line (Homo sapiens, UniProt P00533, DUP768-770, cells depend on it); experiment: Cellular proliferation (Alamar Blue) assay, EGFR(D770_N771insSVD) Ba/F3; conditions: 72 hr, read-out: D770 IC50
Chain of EGFR(D770_N771insSVD) expressing Ba/F3 stable cell line (P00533 with tags, fused parts or gaps DUP768-770): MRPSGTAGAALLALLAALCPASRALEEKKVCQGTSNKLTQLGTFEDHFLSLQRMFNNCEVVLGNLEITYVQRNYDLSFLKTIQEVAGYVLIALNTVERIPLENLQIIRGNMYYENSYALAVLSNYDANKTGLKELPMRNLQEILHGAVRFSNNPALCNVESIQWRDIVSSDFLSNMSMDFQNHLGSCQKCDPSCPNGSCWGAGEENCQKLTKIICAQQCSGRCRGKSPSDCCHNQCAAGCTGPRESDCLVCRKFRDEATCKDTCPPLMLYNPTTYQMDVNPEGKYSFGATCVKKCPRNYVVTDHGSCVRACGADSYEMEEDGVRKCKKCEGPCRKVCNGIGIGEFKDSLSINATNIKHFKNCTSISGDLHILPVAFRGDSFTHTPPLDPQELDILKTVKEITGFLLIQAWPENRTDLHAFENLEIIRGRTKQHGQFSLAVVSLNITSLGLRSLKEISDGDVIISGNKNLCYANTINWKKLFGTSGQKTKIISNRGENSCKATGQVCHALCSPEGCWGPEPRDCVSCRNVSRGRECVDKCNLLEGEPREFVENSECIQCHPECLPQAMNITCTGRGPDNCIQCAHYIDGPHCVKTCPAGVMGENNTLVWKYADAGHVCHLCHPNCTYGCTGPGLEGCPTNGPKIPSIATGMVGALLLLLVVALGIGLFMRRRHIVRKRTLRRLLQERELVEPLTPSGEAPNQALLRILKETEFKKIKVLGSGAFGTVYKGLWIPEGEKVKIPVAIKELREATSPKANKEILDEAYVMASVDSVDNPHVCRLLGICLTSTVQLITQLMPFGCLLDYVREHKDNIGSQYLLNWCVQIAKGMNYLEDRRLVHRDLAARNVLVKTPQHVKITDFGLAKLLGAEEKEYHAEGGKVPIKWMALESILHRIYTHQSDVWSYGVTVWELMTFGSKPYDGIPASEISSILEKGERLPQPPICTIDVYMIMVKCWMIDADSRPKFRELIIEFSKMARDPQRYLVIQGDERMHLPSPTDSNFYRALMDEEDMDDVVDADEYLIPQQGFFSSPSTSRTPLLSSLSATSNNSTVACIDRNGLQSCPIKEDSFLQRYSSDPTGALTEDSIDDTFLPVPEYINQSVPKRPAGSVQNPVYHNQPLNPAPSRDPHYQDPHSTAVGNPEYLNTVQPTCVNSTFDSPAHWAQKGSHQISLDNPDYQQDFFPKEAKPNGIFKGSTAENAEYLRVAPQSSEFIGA
Experimental: (§1) Cell line details: • 1. EGFR(D770_N771insSVD) expressing Ba/F3 stable cell line • 2. EGFR (A767_dupASV) expressing Ba/F3 stable cell line • 3. A431 cells • 4. EGFR (H773insNPH) expressing Ba/F3 stable cell line • 5. HER2 (A775_G776insYVMA) expressing Ba/F3 stable cell line
(§2) • 1. Seed cells at 5000 for A431 and 15,000 cells for Ba/F3 in 100 μL/well in complete media (for A431: DMEM with 10% FBS and for Ba/F3 cells: RPMI with 10% FBS) in 96-well tissue culture plate. Leave outer wells without cells for background measurements. Incubate at 37 degree Celsius in 5% CO2 humidified incubator for 16-18 hours. • 2. Add 0.025 ml of 5X concentration compound dilution or DMSO control. Final compound concentration range is 10-0.0005 μM prepared in 3-fold serial dilutions. Incubate for 72 hr at 37 degree Celsius in 5% CO2 humidified incubator. • 3. Add 0.0125 ml Alamar Blue™ reagent to each well with multi-channel pipette and tap gently on each side of the plate to mix. Incubate for 3 hours at 37 degree Celsius in 5% CO2 humidified incubator. • 4. […] Data analysis was performed using XLfit 5.5.0.5.

[2] = target: EGFR (A767_dupASV) expressing Ba/F3 stable cell line (Homo sapiens, UniProt P00533, DUP767-769, cells depend on it); experiment: Cellular proliferation (Alamar Blue) assay, EGFR (A767_dupASV) Ba/F3; conditions: 72 hr, read-out: A767 IC50
Chain of EGFR (A767_dupASV) expressing Ba/F3 stable cell line (P00533 with tags, fused parts or gaps DUP767-769): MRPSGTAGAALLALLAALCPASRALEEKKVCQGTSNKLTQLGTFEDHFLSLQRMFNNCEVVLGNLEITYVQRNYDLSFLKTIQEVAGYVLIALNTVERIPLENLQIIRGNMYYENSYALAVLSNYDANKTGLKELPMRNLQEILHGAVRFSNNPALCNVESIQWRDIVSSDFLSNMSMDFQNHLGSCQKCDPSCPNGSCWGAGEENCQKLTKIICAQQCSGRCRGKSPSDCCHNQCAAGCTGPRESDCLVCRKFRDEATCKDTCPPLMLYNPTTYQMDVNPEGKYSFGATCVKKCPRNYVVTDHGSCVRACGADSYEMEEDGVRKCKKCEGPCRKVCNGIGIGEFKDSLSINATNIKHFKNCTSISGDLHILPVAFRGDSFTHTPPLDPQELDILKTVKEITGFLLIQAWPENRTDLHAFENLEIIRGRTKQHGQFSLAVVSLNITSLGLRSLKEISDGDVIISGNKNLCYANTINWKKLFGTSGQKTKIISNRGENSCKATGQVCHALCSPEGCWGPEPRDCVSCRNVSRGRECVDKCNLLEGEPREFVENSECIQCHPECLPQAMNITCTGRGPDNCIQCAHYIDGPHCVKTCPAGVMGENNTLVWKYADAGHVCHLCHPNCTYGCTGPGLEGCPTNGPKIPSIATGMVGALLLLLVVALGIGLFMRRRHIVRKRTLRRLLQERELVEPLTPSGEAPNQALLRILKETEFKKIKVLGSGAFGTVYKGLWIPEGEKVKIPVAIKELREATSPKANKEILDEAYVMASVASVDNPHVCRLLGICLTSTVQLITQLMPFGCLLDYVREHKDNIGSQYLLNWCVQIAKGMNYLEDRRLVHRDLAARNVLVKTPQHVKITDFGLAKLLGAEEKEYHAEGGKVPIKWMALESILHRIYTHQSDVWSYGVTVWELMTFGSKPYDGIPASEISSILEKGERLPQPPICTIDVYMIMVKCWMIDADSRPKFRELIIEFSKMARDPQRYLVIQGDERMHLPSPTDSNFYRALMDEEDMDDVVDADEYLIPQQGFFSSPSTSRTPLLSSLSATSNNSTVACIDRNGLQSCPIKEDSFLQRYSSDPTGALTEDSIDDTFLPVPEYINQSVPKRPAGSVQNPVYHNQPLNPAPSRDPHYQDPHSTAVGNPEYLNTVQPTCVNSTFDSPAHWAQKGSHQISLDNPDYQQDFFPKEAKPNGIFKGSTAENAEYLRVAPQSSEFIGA
Experimental: as §1, §2

A431 cells = experiment: Cellular proliferation (Alamar Blue) assay, A431 cells; conditions: Homo sapiens, A-431, 72 h, A431 cells; 72 hr; Alamar Blue; read-out: A431 IC50
Experimental: as §2

[3] = target: HER2 (A775_G776insYVMA) expressing Ba/F3 stable cell line (Homo sapiens, UniProt P04626, DUP772-775, cells depend on it); experiment: Cellular proliferation (Alamar Blue) assay, HER2 (A775_G776insYVMA) Ba/F3; conditions: HER2 (A775_G776insYVMA) Ba/F3 cells; 72 hr; Alamar Blue; read-out: YVMA IC50
Chain of HER2 (A775_G776insYVMA) expressing Ba/F3 stable cell line (P04626 with tags, fused parts or gaps DUP772-775): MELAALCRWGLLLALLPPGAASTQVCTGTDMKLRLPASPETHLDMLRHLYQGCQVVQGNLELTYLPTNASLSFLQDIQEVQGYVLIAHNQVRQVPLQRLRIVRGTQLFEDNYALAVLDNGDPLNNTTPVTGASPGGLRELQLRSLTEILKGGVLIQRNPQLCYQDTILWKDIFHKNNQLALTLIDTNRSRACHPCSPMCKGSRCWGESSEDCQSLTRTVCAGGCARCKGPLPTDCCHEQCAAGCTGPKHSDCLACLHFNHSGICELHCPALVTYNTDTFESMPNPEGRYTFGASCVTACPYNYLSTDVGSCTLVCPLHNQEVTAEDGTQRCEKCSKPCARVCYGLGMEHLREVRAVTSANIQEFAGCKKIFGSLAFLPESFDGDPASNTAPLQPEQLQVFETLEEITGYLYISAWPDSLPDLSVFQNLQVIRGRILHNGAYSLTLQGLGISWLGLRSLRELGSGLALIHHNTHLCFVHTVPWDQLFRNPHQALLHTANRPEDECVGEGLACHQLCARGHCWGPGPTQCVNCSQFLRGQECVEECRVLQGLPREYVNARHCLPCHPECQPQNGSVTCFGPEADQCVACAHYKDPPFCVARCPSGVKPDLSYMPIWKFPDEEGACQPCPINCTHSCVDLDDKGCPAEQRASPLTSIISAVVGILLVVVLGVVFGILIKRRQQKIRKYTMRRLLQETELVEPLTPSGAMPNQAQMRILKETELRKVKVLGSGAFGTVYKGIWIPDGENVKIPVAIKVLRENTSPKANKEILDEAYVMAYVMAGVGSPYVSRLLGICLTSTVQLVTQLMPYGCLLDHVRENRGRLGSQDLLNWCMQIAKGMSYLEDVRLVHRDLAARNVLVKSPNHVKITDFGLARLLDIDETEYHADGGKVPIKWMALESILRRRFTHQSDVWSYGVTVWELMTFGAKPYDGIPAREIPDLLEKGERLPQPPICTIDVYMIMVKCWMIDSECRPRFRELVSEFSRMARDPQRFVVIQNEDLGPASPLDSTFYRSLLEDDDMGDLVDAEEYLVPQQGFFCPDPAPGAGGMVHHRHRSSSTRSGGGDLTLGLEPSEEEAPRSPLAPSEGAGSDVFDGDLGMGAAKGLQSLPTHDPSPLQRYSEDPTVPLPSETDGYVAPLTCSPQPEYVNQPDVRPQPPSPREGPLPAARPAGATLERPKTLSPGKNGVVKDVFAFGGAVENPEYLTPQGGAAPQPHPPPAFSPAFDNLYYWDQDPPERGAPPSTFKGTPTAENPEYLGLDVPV
Experimental: as §1, §2

Row | SMILES | GI50 [1] [nM] | GI50 [2] [nM] | IC50 (A431 cells) [nM] | GI50 [3] [nM]
1 | C=CC(=O)Nc1ccc(F)c(Nc2nc(Nc3cnn(C)c3)ncc2-c2ccc(OC)c(OC)c2)c1 [Compound 2, N-(3-((5-(3,4-dimethoxyphenyl)-2-((1-methyl-1H-pyrazol-4-yl)amino)pyrimidin-4-yl)amino)-4-fluorophenyl)acrylamide] | 1050 | 896 | > 10000 | –
2 | C=CC(=O)Nc1ccc(F)c(Nc2nc(Nc3cnn(C)c3)ncc2-c2ccc(F)c(OC)c2)c1 [Compound 4, N-(4-fluoro-3-((5-(4-fluoro-3-methoxyphenyl)-2-((1-methyl-1H-pyrazol-4-yl)amino)pyrimidin-4-yl)amino)phenyl)acrylamide] | 295 | 293 | > 10000 | 262
3 | C=CC(=O)Nc1ccc(F)c(Nc2nc(Nc3cnn(C)c3)ncc2-c2ccc(C(F)(F)F)cc2OC)c1 [Compound 10, N-(4-fluoro-3-((5-(2-methoxy-4-(trifluoromethyl)phenyl)-2-((1-methyl-1H-pyrazol-4-yl)amino)pyrimidin-4-yl)amino)phenyl)acrylamide] | 3940 | 3230 | > 10000 | –
4 | C=CC(=O)Nc1ccc(F)c(Nc2nc(Nc3cnn(C)c3)ncc2-c2cc(F)cc(N(C)C)c2)c1 [Compound 42, N-(3-((5-(3-(dimethylamino)-5-fluorophenyl)-2-((1-methyl-1H-pyrazol-4-yl)amino)pyrimidin-4-yl)amino)-4-fluorophenyl)acrylamide] | 942 | 737 | 4510 | –
5 | C=CC(=O)Nc1ccc(F)c(Nc2nc(Nc3cn(C)nc3Cl)ncc2-c2ccc(F)c(Cl)c2)c1 [Compound 52, N-(3-((2-((3-chloro-1-methyl-1H-pyrazol-4-yl)amino)-5-(3-chloro-4-fluorophenyl)pyrimidin-4-yl)amino)-4-fluorophenyl)acrylamide] | 104 | 307 | 194 | –
6 | C=CC(=O)Nc1ccc(F)c(Nc2nc(Nc3cnn(C)c3)ncc2-c2ccc3c(c2)CCN3C)c1 [Compound 59, N-(4-fluoro-3-((2-((1-methyl-1H-pyrazol-4-yl)amino)-5-(1-methylindolin-5-yl)pyrimidin-4-yl)amino)phenyl)acrylamide] | 300 | 957 | 575 | –
7 | C=CC(=O)Nc1ccc(F)c(Nc2nc(Nc3cnn(C)c3)ncc2-c2ccc(N3CC(N(C)C)C3)c(F)c2)c1 [Compound 83, N-(3-((5-(4-(3-(dimethylamino)azetidin-1-yl)-3-fluorophenyl)-2-((1-methyl-1H-pyrazol-4-yl)amino)pyrimidin-4-yl)amino)-4-fluorophenyl)acrylamide] | 1010 | 376 | 1060 | –
8 | C=CC(=O)Nc1ccc(F)c(Nc2nc(Nc3cnn(C)c3)ncc2-c2ccc(N(C)CCN(C)C)c(F)c2)c1 [Compound 86, N-(3-((5-(4-((2-(dimethylamino)ethyl)(methyl)amino)-3-fluorophenyl)-2-((1-methyl-1H-pyrazol-4-yl)amino)pyrimidin-4-yl)amino)-4-fluorophenyl)acrylamide] | 2940 | 2240 | 3580 | –
9 | O=C(O)C(F)(F)F.[2H]C([2H])([2H])n1cc(Nc2ncc(-c3cnc(F)c(F)c3)c(Nc3cc(NC(=O)C=C)ccc3F)n2)cn1 [Compound 101, N-(3-((5-(5,6-difluoropyridin-3-yl)-2-((1-(methyl-d3)-1H-pyrazol-4-yl)amino)pyrimidin-4-yl)amino)-4-fluorophenyl)acrylamide] | 15 | – | – | –
10 | C=CC(=O)Nc1cccc(Nc2nc(Nc3cnn(C)c3)ncc2-c2cc(F)c(F)c(F)c2)c1 [Compound 148, N-(3-((2-((1-methyl-1H-pyrazol-4-yl)amino)-5-(3,4,5-trifluorophenyl)pyrimidin-4-yl)amino)phenyl)acrylamide] | 10 | – | 29 | 45
11 | [2H]C([2H])([2H])n1cc(Nc2ncc(-c3ccc(Br)c(F)c3)c(Nc3cc(NC(=O)C=C)ccc3F)n2)cn1 [Compound 169, N-(3-((5-(4-bromo-3-fluorophenyl)-2-((1-(methyl-d3)-1H-pyrazol-4-yl)amino)pyrimidin-4-yl)amino)-4-fluorophenyl)acrylamide] | 36 | – | 11 | 147
12 | C=CC(=O)Nc1ccc(F)c(Nc2nc(Nc3cnn(C)c3)ncc2-c2cc(F)cc(OCC(F)(F)F)c2)c1 [Compound 176, N-(4-fluoro-3-((5-(3-fluoro-5-(2,2,2-trifluoroethoxy)phenyl)-2-((1-methyl-1H-pyrazol-4-yl)amino)pyrimidin-4-yl)amino)phenyl)acrylamide] | 1130 | 859 | – | > 10000
13 | C=C(F)C(=O)Nc1ccc(F)c(Nc2nc(Nc3cnn(C)c3)ncc2-c2ccc(Br)c(F)c2)c1 [Compound 177, N-(3-((5-(4-bromo-3-fluorophenyl)-2-((1-methyl-1H-pyrazol-4-yl)amino)pyrimidin-4-yl)amino)-4-fluorophenyl)-2-fluoroacrylamide] | 939 | 1730 | 326 | –

Now from value to compound:

Row | GI50 [1] [nM] | GI50 [2] [nM] | IC50 (A431 cells) [nM] | GI50 [3] [nM] | SMILES
14 | 363 | 919 | – | – | C=CC(=O)Nc1ccc(F)c(Nc2nc(Nc3cnn(C)c3)ncc2-c2ccc(F)cc2Cl)c1 [Compound 12, N-(3-((5-(2-chloro-4-fluorophenyl)-2-((1-methyl-1H-pyrazol-4-yl)amino)pyrimidin-4-yl)amino)-4-fluorophenyl)acrylamide]
15 | 2730 | 2760 | 2890 | – | C=CC(=O)Nc1ccc(F)c(Nc2nc(Nc3cnn(C)c3)ncc2-c2cc(Cl)ccc2OC)c1 [Compound 23, N-(3-((5-(5-chloro-2-methoxyphenyl)-2-((1-methyl-1H-pyrazol-4-yl)amino)pyrimidin-4-yl)amino)-4-fluorophenyl)acrylamide]
16 | 312 | 248 | 105 | – | C=CC(=O)Nc1ccc(F)c(Nc2nc(Nc3cnn(C)c3)ncc2-c2ccc(N3CC(OC)C3)c(F)c2)c1 [Compound 79, N-(4-fluoro-3-((5-(3-fluoro-4-(3-methoxyazetidin-1-yl)phenyl)-2-((1-methyl-1H-pyrazol-4-yl)amino)pyrimidin-4-yl)amino)phenyl)acrylamide]
17 | 906 | 343 | 3010 | – | C=CC(=O)Nc1ccc(F)c(Nc2nc(Nc3cnn(C)c3)ncc2-c2ccc(N3CCN(C)CC3)c(F)c2)c1 [Compound 81, N-(4-fluoro-3-((5-(3-fluoro-4-(4-methylpiperazin-1-yl)phenyl)-2-((1-methyl-1H-pyrazol-4-yl)amino)pyrimidin-4-yl)amino)phenyl)acrylamide]
18 | 25 | 14 | 20 | – | [2H]C([2H])=CC(=O)Nc1ccc(F)c(Nc2nc(Nc3cnn(C)c3)ncc2-c2cnc(F)c(F)c2)c1 [Compound 103, N-(3-((5-(5,6-difluoropyridin-3-yl)-2-((1-methyl-1H-pyrazol-4-yl)amino)pyrimidin-4-yl)amino)-4-fluorophenyl)acrylamide-3,3-d2]
19 | 927 | 722 | 350 | – | CN(C)C/C=C/C(=O)Nc1ccc(F)c(Nc2nc(Nc3cnn(C)c3)ncc2-c2ccc3c(c2)OCC3)c1 [Compound 178, (E)-N-(3-((5-(2,3-dihydrobenzofuran-6-yl)-2-((1-methyl-1H-pyrazol-4-yl)amino)pyrimidin-4-yl)amino)-4-fluorophenyl)-4-(dimethylamino)but-2-enamide]
